Experimental findings from ChEMBL document CHEMBL6092226, “Tilting the Scales toward EGFR Mutant Selectivity: Expanding the Scope of Bivalent "Type V" Kinase Inhibitors” (J Med Chem, 2024) are described below.

The structures appear in SMILES notation. Active and inactive are the calls of the source. No cut-off for these calls is given here.

A short description of data set [1]: Drug metabolism in pooled male human liver microsomes assessed as thioether oxidation mediated metabolite formation at 150 uM measured after 2 hrs by LC-MS analysis. It is filed as ADME, Microsome. In general terms: Liver microsomes are a subcellular fraction often used to study metabolism.
The target of data set [2] is Epidermal growth factor receptor (Homo sapiens, UniProt P00533, L858R/T790M). Description: Time-dependent irreversible inhibition of GST-tagged EGFR L858R/T790M mutant cytoplasmic domain (669 to 1210 residues) (unknown origin) assessed as apparent inactivation constant (Ki) incubated for 240 mins in presence of ATP by fluorescence based analysis. The following applies: read-out: Ki(app).
Epidermal growth factor receptor (Homo sapiens, UniProt P00533, L858R/T790M), sequence (P00533 25-1210 T790M/L858R limits assumed): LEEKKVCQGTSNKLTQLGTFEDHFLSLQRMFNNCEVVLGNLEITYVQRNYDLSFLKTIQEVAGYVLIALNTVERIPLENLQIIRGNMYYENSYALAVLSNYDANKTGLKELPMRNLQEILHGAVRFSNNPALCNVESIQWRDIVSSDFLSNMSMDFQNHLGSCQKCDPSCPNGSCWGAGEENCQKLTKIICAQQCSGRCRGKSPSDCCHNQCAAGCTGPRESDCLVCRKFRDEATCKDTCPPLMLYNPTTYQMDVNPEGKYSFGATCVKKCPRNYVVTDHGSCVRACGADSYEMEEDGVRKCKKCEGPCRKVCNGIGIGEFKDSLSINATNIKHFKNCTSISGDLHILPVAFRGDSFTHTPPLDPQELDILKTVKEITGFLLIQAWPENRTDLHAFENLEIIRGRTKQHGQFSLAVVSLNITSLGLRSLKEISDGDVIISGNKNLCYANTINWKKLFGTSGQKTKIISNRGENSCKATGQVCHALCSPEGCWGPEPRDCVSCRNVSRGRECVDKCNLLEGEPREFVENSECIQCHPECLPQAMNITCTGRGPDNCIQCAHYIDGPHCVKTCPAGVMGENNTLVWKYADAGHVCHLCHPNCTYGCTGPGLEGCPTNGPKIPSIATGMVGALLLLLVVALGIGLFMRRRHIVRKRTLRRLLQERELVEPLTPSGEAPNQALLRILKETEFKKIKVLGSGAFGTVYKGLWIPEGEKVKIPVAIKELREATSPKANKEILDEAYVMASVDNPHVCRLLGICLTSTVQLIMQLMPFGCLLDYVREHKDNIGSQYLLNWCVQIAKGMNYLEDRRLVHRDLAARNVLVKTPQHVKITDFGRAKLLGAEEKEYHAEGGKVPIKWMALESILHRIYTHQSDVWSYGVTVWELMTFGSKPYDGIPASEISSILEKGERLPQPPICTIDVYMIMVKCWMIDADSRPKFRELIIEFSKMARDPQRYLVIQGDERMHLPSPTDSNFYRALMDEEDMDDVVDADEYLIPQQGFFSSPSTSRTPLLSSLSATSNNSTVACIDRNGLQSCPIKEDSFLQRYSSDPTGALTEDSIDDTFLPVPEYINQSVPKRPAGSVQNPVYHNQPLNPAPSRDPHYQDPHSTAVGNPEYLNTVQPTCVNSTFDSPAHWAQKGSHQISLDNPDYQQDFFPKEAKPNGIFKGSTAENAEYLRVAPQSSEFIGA

In data set [3] the target is Tyrosine-protein kinase Blk (Homo sapiens) (UniProt P51451). Description: Inhibition of BLK (unknown origin) at 1 uM by Eurofins DiscoverX KINOMEscan analysis.
Tyrosine-protein kinase Blk (Homo sapiens), sequence (P51451 2-505 limits assumed): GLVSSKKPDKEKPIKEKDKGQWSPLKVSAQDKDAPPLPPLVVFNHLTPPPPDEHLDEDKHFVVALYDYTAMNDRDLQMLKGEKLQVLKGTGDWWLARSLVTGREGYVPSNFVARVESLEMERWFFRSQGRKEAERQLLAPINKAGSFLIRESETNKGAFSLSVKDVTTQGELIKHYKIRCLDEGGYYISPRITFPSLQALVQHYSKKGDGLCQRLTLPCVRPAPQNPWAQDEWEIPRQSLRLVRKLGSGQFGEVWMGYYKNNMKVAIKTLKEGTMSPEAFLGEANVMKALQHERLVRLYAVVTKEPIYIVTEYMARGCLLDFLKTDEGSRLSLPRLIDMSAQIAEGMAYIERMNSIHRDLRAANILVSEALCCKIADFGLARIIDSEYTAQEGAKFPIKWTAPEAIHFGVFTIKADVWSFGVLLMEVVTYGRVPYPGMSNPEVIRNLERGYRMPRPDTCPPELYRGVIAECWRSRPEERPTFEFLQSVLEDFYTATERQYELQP
Data set [4] has as its target Epidermal growth factor receptor (Homo sapiens, UniProt P00533). Description: Time-dependent irreversible inhibition of N-terminal GST-tagged wildtype human EGFR cytoplasmic domain (669 to 1210 residues) extracted from Sf21 insect cells assessed as apparent inactivation constant (Ki) incubated for 240 mins in presence of ATP by fluorescence based analysis. To be noted: read-out: Ki(app).

Data set [5] deals with BaF3. The class given is functional, cell-based. To be noted: Mus musculus, BaF3, 72 h.
In data set [6] the target is T1, Tyrosine-protein kinase Tec (Homo sapiens) (UniProt P42680).
T1 sequence (whole entry): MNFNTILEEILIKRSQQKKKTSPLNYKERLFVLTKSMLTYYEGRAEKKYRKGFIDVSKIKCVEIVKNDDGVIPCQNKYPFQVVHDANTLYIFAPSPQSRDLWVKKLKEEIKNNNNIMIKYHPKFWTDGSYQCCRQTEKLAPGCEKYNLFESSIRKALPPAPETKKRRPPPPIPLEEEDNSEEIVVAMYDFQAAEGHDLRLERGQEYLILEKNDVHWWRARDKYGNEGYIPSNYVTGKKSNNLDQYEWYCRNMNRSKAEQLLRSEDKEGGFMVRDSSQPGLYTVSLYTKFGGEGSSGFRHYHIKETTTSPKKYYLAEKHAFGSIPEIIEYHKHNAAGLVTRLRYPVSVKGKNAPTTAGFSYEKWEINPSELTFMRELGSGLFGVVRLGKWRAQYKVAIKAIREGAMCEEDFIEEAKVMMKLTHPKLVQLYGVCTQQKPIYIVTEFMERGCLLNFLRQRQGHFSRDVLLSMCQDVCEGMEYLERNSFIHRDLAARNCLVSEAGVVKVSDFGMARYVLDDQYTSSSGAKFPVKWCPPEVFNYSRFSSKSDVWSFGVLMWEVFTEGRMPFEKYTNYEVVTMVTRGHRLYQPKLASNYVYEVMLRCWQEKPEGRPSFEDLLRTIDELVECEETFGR
Description: Inhibition of TEC (unknown origin) at 1 uM by Eurofins DiscoverX KINOMEscan analysis.

Data set [7] concerns the target T2, Tyrosine-protein kinase ITK/TSK (Homo sapiens) (UniProt Q08881).
T2 sequence (whole entry): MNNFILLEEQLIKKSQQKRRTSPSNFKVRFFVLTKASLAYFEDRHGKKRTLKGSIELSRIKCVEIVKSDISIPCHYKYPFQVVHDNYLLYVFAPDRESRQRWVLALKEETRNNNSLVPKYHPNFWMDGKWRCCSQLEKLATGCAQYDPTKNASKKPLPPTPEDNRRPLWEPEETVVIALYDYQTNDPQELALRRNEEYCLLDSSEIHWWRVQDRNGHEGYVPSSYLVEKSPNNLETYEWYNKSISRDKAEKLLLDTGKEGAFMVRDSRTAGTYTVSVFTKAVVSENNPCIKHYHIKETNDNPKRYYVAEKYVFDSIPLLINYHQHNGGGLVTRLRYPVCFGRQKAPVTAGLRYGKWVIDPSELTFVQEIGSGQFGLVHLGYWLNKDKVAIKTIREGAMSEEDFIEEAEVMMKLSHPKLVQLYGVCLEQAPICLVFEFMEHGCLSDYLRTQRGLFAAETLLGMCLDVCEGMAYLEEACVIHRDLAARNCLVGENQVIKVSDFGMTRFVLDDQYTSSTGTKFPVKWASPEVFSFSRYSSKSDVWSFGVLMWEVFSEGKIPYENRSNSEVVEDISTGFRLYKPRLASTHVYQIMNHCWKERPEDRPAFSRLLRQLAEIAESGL
In words: Inhibition of ITK (unknown origin) at 1 uM by Eurofins DiscoverX KINOMEscan analysis.

For data set [8], the system named is BaF3. In words: cells. To be noted: Mus musculus, BaF3, 72 h.
A further data set can be described thus: cells. To be noted: Homo sapiens, NCI-H1975, 72 h.
In data set [9] the target is T3, Tyrosine-protein kinase TXK (Homo sapiens) (UniProt P42681).
T3 sequence (whole entry): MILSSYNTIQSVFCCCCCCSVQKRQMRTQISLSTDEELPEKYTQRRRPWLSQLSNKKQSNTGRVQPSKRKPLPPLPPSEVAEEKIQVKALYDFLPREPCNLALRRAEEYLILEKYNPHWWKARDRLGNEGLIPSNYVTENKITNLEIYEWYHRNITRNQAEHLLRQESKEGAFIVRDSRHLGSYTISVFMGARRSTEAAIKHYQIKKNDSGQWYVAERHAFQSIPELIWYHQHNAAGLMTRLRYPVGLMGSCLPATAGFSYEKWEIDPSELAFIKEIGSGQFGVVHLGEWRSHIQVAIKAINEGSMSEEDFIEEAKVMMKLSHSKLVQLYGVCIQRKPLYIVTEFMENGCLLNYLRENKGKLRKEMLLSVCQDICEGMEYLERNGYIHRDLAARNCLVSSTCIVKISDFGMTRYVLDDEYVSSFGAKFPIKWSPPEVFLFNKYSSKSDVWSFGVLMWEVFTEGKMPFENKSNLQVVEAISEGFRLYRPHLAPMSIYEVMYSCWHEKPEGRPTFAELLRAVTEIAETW
In words: Inhibition of TXK (unknown origin) at 1 uM by Eurofins DiscoverX KINOMEscan analysis.

Data set [10] in a line: Metabolic stability in pooled male human liver microsomes at 150 uM measured after 2 hrs in presence of NADPH regenerating system by LC-MS analysis. The class given is ADME, Microsome.
For data set [11], the target named is Epidermal growth factor receptor (Homo sapiens, UniProt P00533, L858R). Description: Time-dependent irreversible inhibition of GST-tagged EGFR L858R mutant cytoplasmic domain (669 to 1210 residues) (unknown origin) assessed as apparent inactivation constant (Ki) incubated for 240 mins in presence of ATP by fluorescence based analysis. To be noted: read-out: Ki(app).

Data set [12] has as its target Myosin-IIIa (Homo sapiens) (UniProt Q8NEV4). In words: Inhibition of MYO3A (unknown origin) at 1 uM by Eurofins DiscoverX KINOMEscan analysis relative to control.
In a further data set the test system is HCC827. In words: cells. The following applies: Homo sapiens, HCC827, 72 h.
The subject of data set [13] is BaF3. Description: Antiproliferative activity against mouse BaF3 cells harboring EGFR exon 19del mutant incubated for 72 hrs by MTT assay. It is filed as functional, cell-based. To be noted: BaF3, 72 h. A general note: Tetrazolium assays rely on reduction of a dye to a coloured formazan, in cell work by metabolically active cells.
The test system of data set [14] is BaF3. Description: cells. To be noted: Mus musculus, BaF3, 72 h. The source holds these as a separate data set.
The species named for a further data set is Homo sapiens. In words: Inhibition of DMPK2 (unknown origin) at 1 uM by Eurofins DiscoverX KINOMEscan analysis relative to control.
Data set [15] has as its system BaF3. In words: cells. The following applies: Mus musculus, BaF3, 72 h. The source holds these as a separate data set.

The term inhibition denotes how much of the control response was suppressed. By EC50 is commonly meant the concentration at which the effect is half-maximal. The low end stands for a more potent agent, the high end for a less potent agent.

Myosin-IIIa (Homo sapiens), sequence (Q8NEV4 whole entry): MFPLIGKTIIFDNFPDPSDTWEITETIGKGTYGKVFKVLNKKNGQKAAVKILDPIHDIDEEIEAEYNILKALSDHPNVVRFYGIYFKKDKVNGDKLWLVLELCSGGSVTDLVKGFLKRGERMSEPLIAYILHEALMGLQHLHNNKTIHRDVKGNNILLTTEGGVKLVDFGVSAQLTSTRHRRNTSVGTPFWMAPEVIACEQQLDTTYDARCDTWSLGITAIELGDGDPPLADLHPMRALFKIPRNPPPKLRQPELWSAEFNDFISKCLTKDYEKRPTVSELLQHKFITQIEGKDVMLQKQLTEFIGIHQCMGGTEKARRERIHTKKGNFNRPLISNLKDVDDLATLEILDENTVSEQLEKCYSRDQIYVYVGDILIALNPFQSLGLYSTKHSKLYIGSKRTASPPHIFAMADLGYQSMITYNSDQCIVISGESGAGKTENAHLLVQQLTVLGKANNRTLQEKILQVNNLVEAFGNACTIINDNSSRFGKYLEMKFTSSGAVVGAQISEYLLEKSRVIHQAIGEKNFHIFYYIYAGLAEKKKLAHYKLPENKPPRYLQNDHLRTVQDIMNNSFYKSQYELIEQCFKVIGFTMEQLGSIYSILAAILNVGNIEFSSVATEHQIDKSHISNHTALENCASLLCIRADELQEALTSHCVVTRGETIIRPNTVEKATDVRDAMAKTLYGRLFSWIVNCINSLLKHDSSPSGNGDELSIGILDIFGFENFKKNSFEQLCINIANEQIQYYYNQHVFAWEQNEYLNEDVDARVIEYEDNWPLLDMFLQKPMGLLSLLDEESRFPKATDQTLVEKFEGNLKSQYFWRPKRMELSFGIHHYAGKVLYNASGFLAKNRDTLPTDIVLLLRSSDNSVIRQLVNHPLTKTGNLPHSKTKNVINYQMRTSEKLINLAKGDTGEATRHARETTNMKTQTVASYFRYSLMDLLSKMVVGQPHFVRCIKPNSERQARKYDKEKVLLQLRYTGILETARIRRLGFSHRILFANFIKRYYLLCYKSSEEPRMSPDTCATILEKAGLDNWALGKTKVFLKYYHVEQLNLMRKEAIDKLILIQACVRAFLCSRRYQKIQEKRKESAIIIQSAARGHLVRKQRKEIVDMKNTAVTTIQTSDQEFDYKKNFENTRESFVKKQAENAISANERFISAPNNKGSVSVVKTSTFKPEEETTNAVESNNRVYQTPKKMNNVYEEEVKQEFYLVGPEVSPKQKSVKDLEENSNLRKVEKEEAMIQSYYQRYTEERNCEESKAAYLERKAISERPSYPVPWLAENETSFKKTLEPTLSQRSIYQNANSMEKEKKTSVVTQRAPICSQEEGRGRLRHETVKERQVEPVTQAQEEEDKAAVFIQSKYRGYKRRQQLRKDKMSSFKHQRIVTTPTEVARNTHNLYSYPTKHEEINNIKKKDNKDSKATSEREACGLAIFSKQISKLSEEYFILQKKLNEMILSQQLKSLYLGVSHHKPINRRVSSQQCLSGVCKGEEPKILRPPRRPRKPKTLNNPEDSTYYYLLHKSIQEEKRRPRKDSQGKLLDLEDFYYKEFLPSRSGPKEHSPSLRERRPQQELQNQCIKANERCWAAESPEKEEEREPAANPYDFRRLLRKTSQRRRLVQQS
Epidermal growth factor receptor (Homo sapiens, UniProt P00533), sequence (P00533 whole entry, the tested form may be a part): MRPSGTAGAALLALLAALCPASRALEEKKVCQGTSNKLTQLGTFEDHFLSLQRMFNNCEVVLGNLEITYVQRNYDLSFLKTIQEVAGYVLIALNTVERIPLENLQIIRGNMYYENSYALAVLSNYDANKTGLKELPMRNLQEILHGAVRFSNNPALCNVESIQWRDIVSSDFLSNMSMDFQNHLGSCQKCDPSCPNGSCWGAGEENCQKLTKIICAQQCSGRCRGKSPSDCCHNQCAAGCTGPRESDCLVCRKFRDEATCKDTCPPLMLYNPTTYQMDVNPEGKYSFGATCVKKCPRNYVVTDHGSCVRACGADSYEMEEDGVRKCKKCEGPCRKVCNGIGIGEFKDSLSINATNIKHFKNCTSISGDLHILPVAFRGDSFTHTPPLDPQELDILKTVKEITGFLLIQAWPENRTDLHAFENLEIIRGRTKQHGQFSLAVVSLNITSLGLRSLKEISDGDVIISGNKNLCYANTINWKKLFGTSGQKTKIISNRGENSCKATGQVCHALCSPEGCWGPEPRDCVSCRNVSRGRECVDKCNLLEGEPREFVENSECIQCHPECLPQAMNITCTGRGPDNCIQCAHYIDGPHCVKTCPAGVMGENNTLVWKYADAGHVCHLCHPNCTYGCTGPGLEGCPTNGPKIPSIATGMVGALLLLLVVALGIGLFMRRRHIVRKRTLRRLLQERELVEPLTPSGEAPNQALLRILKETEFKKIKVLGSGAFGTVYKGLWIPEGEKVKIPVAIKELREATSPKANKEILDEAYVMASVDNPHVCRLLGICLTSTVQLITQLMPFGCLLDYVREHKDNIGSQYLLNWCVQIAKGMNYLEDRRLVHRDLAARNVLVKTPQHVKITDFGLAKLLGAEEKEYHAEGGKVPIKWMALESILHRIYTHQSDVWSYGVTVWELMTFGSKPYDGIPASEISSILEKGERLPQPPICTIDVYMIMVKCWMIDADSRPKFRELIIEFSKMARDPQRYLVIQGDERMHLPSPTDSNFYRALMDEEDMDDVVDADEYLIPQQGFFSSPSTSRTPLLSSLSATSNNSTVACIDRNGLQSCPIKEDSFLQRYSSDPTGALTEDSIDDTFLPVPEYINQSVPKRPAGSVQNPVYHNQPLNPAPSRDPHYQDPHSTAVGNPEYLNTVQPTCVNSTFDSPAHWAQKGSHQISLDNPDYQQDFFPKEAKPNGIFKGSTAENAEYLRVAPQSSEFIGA

Turning to `C=CC(=O)Nc1ccc(OC)c(Nc2cc(-c3[nH]c(SC)nc3-c3cccc(NC(=O)c4cccc(O)c4CN4Cc5ccccc5C4=O)c3)ccn2)c1`, the Drug metabolism entry in [1] was “metabolite_detected”. Further, the Ki was determined as 543 nM in data set [2], 1320 nM in data set [4] and 276 nM in data set [11]. Further, the inhibition entry in [3], in data set [6], in [7] and in data set [9] was “inactive” throughout. The EC50 in the data set with BaF3 [5] was 3900 nM; in the data set with BaF3 [8] it was 750 nM; in “cells”, 330 nM; in the data set on HCC827, 160 nM; in the data set on BaF3 [13] it was 950 nM; in the data set on BaF3 [14] it was 430 nM. The compound further yielded an EC50 in the data set on BaF3 [15] of 150 nM. Also, the Stability entry in [10] was “Stable”. The inhibition (in data set [12]; in the data set filed under Homo sapiens) was below 10% in each case.
